Values quoted from earlier work as cited in EP1790727A2, “Proteins and nucleic acids encoding same” (Curagen Corporation, priority 2000, dated 2002).
Where two headings read alike, the source gives them in different places.

How the values were obtained:
[1] = for increased reepithelialization over saline controls: topically or intraperitoneally
keratinocyte = conditions: after 4-5 h; as little as 10 pg of Tbeta4
[2] = in vivo, mouse paw
MgATP-actin = MgATP-actin (Homo sapiens, UniProt P68133); conditions: but not CaATP-actin
neutrophil = conditions: in vitro

proteolysis at Gly(46) on subdomain 2, faster when Tbeta(4) is bound (MgATP-actin) [times] | Substance | wound contraction more than controls ([1]; by day 7) | collagen deposition and angiogenesis in the treated wounds ([1]; rat, in vivo) | increased reepithelialization over saline controls ([1]; at 4 d) [%] | increased reepithelialization over saline controls ([1]; at 7 d post-wounding) [%] | migration stimulated over migration with medium alone (keratinocyte) | carrageenin-induced edema [2] | neutrophil chemotaxis (neutrophil)
> 12 | thymosin beta4 [Tbeta4] | at least 11% | Increased | 42 | ≤ 61 | 2-3 fold | not | 
 | thymosin beta4 sulfoxide |  |  |  |  |  | potent inhibitor | inhibited
